We go through three molecules from US8039668B2, “Naphthalene-based inhibitors of anti-apoptotic proteins” (Burnham Institute for Medical Research, priority 2008, dated 2011).

Read-outs that look alike come from different tables or passages of the source.

One data set has as its target Bcl-2 (Homo sapiens, UniProt P10415). Briefly: Competitive fluorescence polarization assay (FPA), Bim BH3 peptide. It is filed as binding.
For another data set, the target named is T1, Bfl-1 (Homo sapiens, UniProt Q16548).
T1 sequence (Q16548 1-175): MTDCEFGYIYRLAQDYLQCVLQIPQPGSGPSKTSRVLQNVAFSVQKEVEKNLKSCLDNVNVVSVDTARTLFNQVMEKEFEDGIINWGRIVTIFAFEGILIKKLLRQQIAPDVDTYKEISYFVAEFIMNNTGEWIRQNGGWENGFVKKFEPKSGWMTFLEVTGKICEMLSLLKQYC
Briefly: Competitive fluorescence polarization assay (FPA). It is filed as binding.

Another data set deals with PC3ML cells. In words: Cell viability, ATP-LITE assay. It is filed as cell-based, human. Particulars: Table 3; ATP-LITE assay; heading: EC50 PC3ML; read-out: EC50 PC3ML. The method, boiled down:
(§1)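 Human cancer lines were seeded at 2000 (H460, H1299), 3000 (PC3) or 10,000 (RS11846) cells/well in F12 or RPMI1640 with 5% FBS. Compounds were added in 0.1% DMSO 24 h after seeding. Viability was read by ATP-LITE luminescence after 72 h and normalized to DMSO controls.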

In data set [1] the test system is H460 human lung cell line. Briefly: Cell viability, ATP-LITE assay. It is filed as cell-based. As to conditions: ATP-LITE assay, read-out: EC50 H460. The method, boiled down: as §1
The subject of data set [2] is human lymphoma RS11846 cell line. In words: Apoptosis, Annexin V-FITC and propidium iodide assay. It is filed as cell-based. As to conditions: Table 3; Annexin V-FITC and propidium iodide assay; heading: EC50 RS11846; read-out: EC50 RS11846.
Data set [3] concerns BP3 human B-cell lymphoma cell line. Briefly: Annexin V-FITC and propidium iodide assay. As to conditions: Annexin V-FITC and propidium iodide assay, read-out: EC50 BP3. It is filed as cell-based.
Data set [4] is described as follows: Chemical stability of solid compounds at room temperature (HPLC, LCMS). Particulars: in air, Apogossypol in the absence of ascorbic acid. The source says:
The stability of compound was monitored using a combination of HPLC and LCMS.

The nature of a further data set: Plasma stability. It is filed as in vitro ADME, rat. As for the experimental part: Plasma Stability. A 20 μL aliquot of a 10 mM solution in DMSO of the test compound was added to 2.0 mL of heparinized rat plasma (Lampire, P1-150N) to obtain a 100 μM final solution. The mixture was incubated for 1 h at 37.5° C. Aliquots of 100 μL were taken (0, 30 min, 1 h) and diluted with 200 μL of MeOH containing internal standard.

A short description of data set [5]: Liver microsomal stability. It is filed as in vitro ADME, rat. Particulars: Table 6; rat liver microsomes, 1 h. The source says: Liver Microsomal Stability.
Data set [6] can be described thus: PAMPA cell membrane permeability. It is filed as in vitro ADME. As to conditions: Table 11; Low/Medium, not defined. The source says: PAMPA is parallel artificial membrane permeation assay.
Background: The PAMPA barrier holds no transporters, so it reflects passive diffusion.

The test system of the next data set is B6Bcl-2 transgenic mice. The method, boiled down:
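B6 line BCL-2 transgenic mice (human BCL-2 fused to IgH locus/enhancer, Balb/c background) sacrificed 24 h post-treatment by lethal i.p. Avertin. Spleen removed and weighed, fixed 3 days in z-FIX for H&E and TUNEL histology.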

A further data set deals with Balb/c mice. In words: Oral toxicity of gossypol vs apogossypol in normal mice. It is filed as in vivo, mouse. Particulars: daily dosing studies in mice. How it is done:
Compounds or vehicle control were dosed 15 times over 3 weeks, giving compounds daily for 5 consecutive days (Monday-Friday), resting on weekends.
Spleens were removed and weighed.
Whole blood (250 μl) was collected in EDTA-coated glass tubes (purple top; MICROTAINER Brand Tube with EDTA, Catalogue #365973, Becton, Dickinson and Company, New Jersey 07417-1885) via either cardiac puncture or severing the brachial artery of anesthetized mice. After thorough mixing, specimens were analyzed using a VetScan HM2 (Abaxis Inc., Union City, Calif. 94587) hematology analyzer, measuring white blood cell count (WBC), red blood cell count (RBC), platelet (PLT) count, leukocyte differential (including % lymphocyte, % monocyte and % granulocyte), hematocrit (Ht), and hemoglobin (Hb).
(Eppendorf Centrifuge 5415C) for 2 minutes to separate serum from cells and fibrin clot. The resulting serum specimens were analyzed using an automated blood chemistry analyzer (“COBAS MIRA Classic”; Roche, Indianapolis, Ind. 46250-0414) to measure alanine aminotransferase (ALT) and aspartate aminotransferase AST), blood urea nitrogen (BUN), and […].

The subject of a further data set is BCL-2 transgenic mice. Briefly: Oral efficacy study in BCL-2 transgenic mice, QDx5 for 3 weeks. As to conditions: low dose 0.06 mmol/kg oral. How it is done: The volume of administration was 10 ml/kg, i.e., typically 0.2 mL per 20 gm mouse. […] Age-matched, sex-matched mice were typically dosed 5 times weekly, using a regiment of daily dosing 5 consecutive days (Monday through Friday), followed by resting for 2 days, before resuming dosing. […] At conclusion of treatments, mice were sacrificed via intra-peritoneal (i.p.) injection of 0.7 ml of Avertin and whole blood was collected into Yellow-Top Serum Separator tubes (Becton Dickinson Vacutainer Systems Becton Dickinson and Company, Franklin Lakes, N.J. 07417-1885). Spleens were removed and weighed.
Age-matched and sex-matched BCL-2 transgenic mice were used for efficacy studies. BCL-2 transgenic mice spontaneously developed low grade B-cell lymphoma as characterized by splenomegaly, as a function of time. In BCL-2 transgenic mice, the disease progression can be divided into two stages; at the first stage, the disease is characterized by splenomegaly as a result of expansion of B-cells in spleen due to over-expressed BCL-2 in B6 mice, and at the second stage, another genetic hit(s) may strike, resulting in disseminated lymphoma as characterized by bulky lymphadenopathy as well as splenomegaly.
In this study, BCL-2 transgenic mice at the first stage were used for this efficacy study. […] At conclusion of treatment, BCL-2 transgenic mice were sacrificed via intraperitoneal injection of 0.7 ml of avertin (anesthetic solution) and spleen was removed and weighed. Splenocytes were isolated by the use of mouse erythrocyte lysing kit (RD Systems). Total splenocyte count was determined by trypane blue exclusion assays. % B-cell count was determined by FACS analysis after staining cells with CD-5, a B-cell marker.

A further data set concerns HeLa cells. In words: HeLa cells viability assay. It is filed as cell-based. Particulars: Homo sapiens, Table 12. How it is done:
Relative numbers of viable cells was determined by XTT assay. Briefly, in a 96-well plate, we added 50 μl of a mixture of 1 mg/ml of XTT (2,3-bis(2-methoxy-4-nitro-5-sulfophenyl)-5-[(phenylamino)carbonyl]-2H-tetrazolium hydroxide) (Polysciences, Washington, Pa.) containing 0.025 mM PMS (phenazine methosulfate) to each well. The 96-well plates were reincubated for an additional 4 hours to allow for XTT formazan production. Then, the contents of each plate were mixed and optical densities were determined at a wavelength of 450 nm (OD450). Net OD450 was determined after subtracting OD450 of blank wells. […] Immunoblot analysis of BCL-XL was accomplished as previously described.

Another data set relates to H460 cell line. As to conditions: studied by other groups; cited from earlier work.

Chain of Bcl-2 (P10415 whole entry): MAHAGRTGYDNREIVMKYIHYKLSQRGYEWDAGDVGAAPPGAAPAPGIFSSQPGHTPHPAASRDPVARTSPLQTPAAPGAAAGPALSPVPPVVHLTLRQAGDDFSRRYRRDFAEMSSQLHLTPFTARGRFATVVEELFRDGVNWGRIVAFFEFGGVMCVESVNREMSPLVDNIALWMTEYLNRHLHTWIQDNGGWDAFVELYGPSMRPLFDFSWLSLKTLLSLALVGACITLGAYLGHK

In general, IC50 refers to the concentration that inhibits the measured activity by half. A word on the EC50: it is the concentration giving half of the maximal effect. With `Cc1cc2c(C(C)C)c(O)c(O)cc2c(O)c1-c1c(C)cc2c(C(C)C)c(O)c(O)cc2c1O` [Apogossypol, 5,5′-diisopropyl-3,3′-dimethyl-2,2′-binaphthyl-1,1′,6,6′,7,7′-hexanol, reference compound], the figures for the IC50 at Bcl-2 and on Bfl-1 were 4.3 µM and more than 10 µM, respectively. Further, the EC50 in the data set on PC3ML cells came out at 10.4 µM; in data set [1], 3.5 µM; in data set [1] (Table 3, heading: EC50 H460), 3.5 µM; in [2], 5 µM; in data set [3], 4.7 µM; in data set [3] (Table 3, heading: EC50 BP3) it was 4.7 µM. Besides, the “degraded after 60 days at room temperature” value in data set [4] was approximately 80%. Moreover, the “degraded after 1 hour incubation in rat plasma” value in “Plasma stability” (1 hour) was 47%. The “Plasma stability (T = 1 h)” value in the data set “Plasma stability” (Table 6, rat plasma, 1 h) worked out at 53%. In addition, the “Microsomal Stability (T = 1 h)” value in data set [5] was 64%. Further, the “Cell Permeability” value in data set [6] is reported as “Low”. The molecule further returned a Tox in the data set with B6Bcl-2 transgenic mice (Bcl-2 transgenic mouse, single ip injection 72 μmol/kg) of 0. Moreover, the “percentage of maximum reduction in spleen weight (maximal biological activity)” value in the data set with B6Bcl-2 transgenic mice (single ip 72 μmol/kg, maximum shrinkage no more than 50%) came out at 40%. The “tolerated doses, times higher than gossypol” value with Balb/c mice was 2-4. For the same molecule, the shrinkage of spleen entry with BCL-2 transgenic mice is “induced shrinkage of spleen to a significant extent”. In addition, the tolerability entry with BCL-2 transgenic mice is reported as “well tolerated”.
In the data set with HeLa cells, `O=c1c(O)cccc2cc(O)c(O)c(O)c12` [Purpurogallin] returned a 50% inhibitory concentration (IC50) of 6.5 µM.
With `COC1=CC(c2cc3ccccc3[nH]2)=N/C1=C\c1[nH]c(C)cc1C` [GX15-070], in the data set on H460 cell line, the IC50 is 3.85 µM.
